The values that follow come from PubChem BioAssay AID248 (DTP/NCI, 2004).

“And” between values parts separate entries of the source, which are not always exact repeats. Identical values can stand only once. Inconclusive results and toxic doses are left out.

This experiment relates to L1210 leukemia ip in BDF1 mice, survival T/C. Kind of experiment: NCI In Vivo Anticancer Drug Screen. Data for tumor model L1210 Leukemia (intraperitoneal) in B6D2F1 (BDF1) mice. The note with it: endpoint: mean survival time, higher = longer survival. In short, it runs like this:
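Antitumor effect is assessed in tumor-bearing animals. Survival in the compound arm is compared with a vehicle-dosed control arm and expressed as their quotient.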

Setting [1] is: dose: 100.0 mg/kg/injection, schedule: Q01DX001 (ip), vehicle: carboxymethylcellulose (CMC).
Where [2] appears, read: dose: 200.0 mg/kg/injection, schedule: Q01DX001 (ip), vehicle: carboxymethylcellulose (CMC).
The mark [3] stands for this setting: dose: 400.0 mg/kg/injection, schedule: Q01DX001 (ip), vehicle: carboxymethylcellulose (CMC).
[4] abbreviates: dose: 100.0 mg/kg/injection, schedule: Q01DX009 (ip), vehicle: Klucel (hydroxypropylcellulose) (HPC).
Where [5] appears, read: dose: 200.0 mg/kg/injection, schedule: Q01DX009 (ip), vehicle: Klucel (hydroxypropylcellulose) (HPC).
The mark [6] stands for this setting: dose: 400.0 mg/kg/injection, schedule: Q01DX009 (ip), vehicle: Klucel (hydroxypropylcellulose) (HPC).
The mark [7] stands for this setting: dose: 100.0 mg/kg/injection, schedule: Q01DX009 (ip), vehicle: saline with Tween-80.
Where [8] appears, read: dose: 200.0 mg/kg/injection, schedule: Q04DX003 (ip), vehicle: Klucel (hydroxypropylcellulose) (HPC).

With `CC(N)CN` (stereo not given), the T/C (dose: 100.0 mg/kg/injection, schedule: Q04DX002 (ip), vehicle: saline) is 100 % of control; the T/C (dose: 200.0 mg/kg/injection, schedule: Q04DX002 (ip), vehicle: saline) was 89 % of control; the T/C (dose: 400.0 mg/kg/injection, schedule: Q04DX002 (ip), vehicle: saline) was 103 % of control.
As for `CC(=O)c1ccc(OC(=O)Oc2ccc(C(C)=O)cc2)cc1`, the T/C was 93 % of control under setting [1], 101 % of control under setting [2] and 93 % of control under setting [3].
Take `COC(=O)c1cc(-c2ccc(Cl)cc2)nc2c(C)cc(C)cc12`: the T/C is, setting by setting: under setting [1], 92 % of control; under setting [2], 101 % of control; under setting [3], 89 % of control.
For the compound `OCc1cnc[nH]1`, the T/C (dose: 3.0 mg/kg/injection, schedule: Q04DX002 (ip), vehicle: saline) was 123 % of control; the T/C (dose: 6.0 mg/kg/injection, schedule: Q04DX002 (ip), vehicle: saline) is 97 % of control; the T/C (dose: 12.0 mg/kg/injection, schedule: Q04DX002 (ip), vehicle: saline) is 94 % of control; the T/C (dose: 25.0 mg/kg/injection, schedule: Q04DX002 (ip), vehicle: saline) was 97 % of control and 121 % of control; the T/C (dose: 50.0 mg/kg/injection, schedule: Q04DX002 (ip), vehicle: saline) is 105 % of control.
Regarding `CCCCCCCCCC(=O)N1CCCCC1CC` (stereo not given), the T/C under setting [1] is 103 % of control; the T/C (dose: 100.0 mg/kg/injection, schedule: Q01DX009 (ip), vehicle: carboxymethylcellulose (CMC)) is 94 % of control and 95 % of control; the T/C (dose: 100.0 mg/kg/injection, schedule: Q04DX002 (ip), vehicle: carboxymethylcellulose (CMC)) was 100 % of control and 92 % of control; the T/C (dose: 100.0 mg/kg/injection, schedule: Q04DX003 (ip), vehicle: carboxymethylcellulose (CMC)) is 92 % of control; the T/C under setting [2] is 101 % of control; the T/C (dose: 200.0 mg/kg/injection, schedule: Q01DX009 (ip), vehicle: carboxymethylcellulose (CMC)) is 95 % of control and 102 % of control. For the same compound, the T/C was 103 % of control and 92 % of control (dose: 200.0 mg/kg/injection, schedule: Q04DX002 (ip), vehicle: carboxymethylcellulose (CMC)); 95 % of control (dose: 200.0 mg/kg/injection, schedule: Q04DX003 (ip), vehicle: carboxymethylcellulose (CMC)); 95 % of control under setting [3]; 95 % of control and 96 % of control (dose: 400.0 mg/kg/injection, schedule: Q04DX002 (ip), vehicle: carboxymethylcellulose (CMC)); 97 % of control (dose: 400.0 mg/kg/injection, schedule: Q04DX003 (ip), vehicle: carboxymethylcellulose (CMC)).
In the case of `CN(CCc1ccccc1)/N=N/c1nc[nH]c1C(N)=O`, the T/C is, setting by setting: (dose: 100.0 mg/kg/injection, schedule: Q01DX001 (ip), vehicle: saline with Tween-80) 96 % of control; under setting [4], 102 % of control; (dose: 100.0 mg/kg/injection, schedule: Q04DX003 (ip), vehicle: saline with Tween-80) 110 % of control; (dose: 118.0 mg/kg/injection, schedule: Q04DX003 (ip), vehicle: saline with Tween-80) 101 % of control; (dose: 150.0 mg/kg/injection, schedule: Q01DX009 (ip), vehicle: saline with Tween-80) 155 % of control; (dose: 177.0 mg/kg/injection, schedule: Q04DX003 (ip), vehicle: saline with Tween-80) 115 % of control. The T/C is, setting by setting: (dose: 200.0 mg/kg/injection, schedule: Q01DX001 (ip), vehicle: saline with Tween-80) 104 % of control; under setting [5], 103 % of control; (dose: 200.0 mg/kg/injection, schedule: Q04DX003 (ip), vehicle: saline with Tween-80) 112 % of control; (dose: 300.0 mg/kg/injection, schedule: Q01DX009 (ip), vehicle: saline with Tween-80) 163 % of control; (dose: 400.0 mg/kg/injection, schedule: Q01DX001 (ip), vehicle: saline with Tween-80) 118 % of control; under setting [6], 113 % of control. The T/C (dose: 400.0 mg/kg/injection, schedule: Q04DX003 (ip), vehicle: saline with Tween-80) is 150 % of control and the T/C (dose: 600.0 mg/kg/injection, schedule: Q04DX003 (ip), vehicle: saline with Tween-80) was 179 % of control.
With `CC(=O)OCN1C(=O)N(COC(C)=O)C(c2ccccc2)(c2ccccc2)C1=O`, the T/C is 102 % of control under setting [7]; 102 % of control (dose: 100.0 mg/kg/injection, schedule: Q04DX002 (ip), vehicle: saline with Tween-80); 87 % of control (dose: 200.0 mg/kg/injection, schedule: Q01DX009 (ip), vehicle: saline with Tween-80); 102 % of control (dose: 200.0 mg/kg/injection, schedule: Q04DX002 (ip), vehicle: saline with Tween-80); 106 % of control (dose: 400.0 mg/kg/injection, schedule: Q04DX002 (ip), vehicle: saline with Tween-80).
In the case of `CCCCCCCCCC(O)CC` (stereo not given), the T/C under setting [4] was 106 % of control; the T/C (dose: 100.0 mg/kg/injection, schedule: Q04DX003 (ip), vehicle: Klucel (hydroxypropylcellulose) (HPC)) is 103 % of control; the T/C under setting [5] was 102 % of control; the T/C under setting [8] was 103 % of control; the T/C under setting [6] was 105 % of control; the T/C (dose: 400.0 mg/kg/injection, schedule: Q04DX003 (ip), vehicle: Klucel (hydroxypropylcellulose) (HPC)) was 103 % of control.
Turning to `C1CCC(NCCNC2CCCCC2)CC1`, where the note is “dose: 75.0 mg/kg/injection, schedule: Q01DX001 (ip), vehicle: saline”, the T/C is 98 % of control.
Consider `O=S(=O)(Oc1cccc(C(F)(F)F)c1)c1cccc(C(F)(F)F)c1`, for which the T/C reads like this: (dose: 6.25 mg/kg/injection, schedule: Q01DX009 (ip), vehicle: saline sonified) 101 % of control; (dose: 6.25 mg/kg/injection, schedule: Q04DX003 (ip), vehicle: Klucel (hydroxypropylcellulose) (HPC)) 103 % of control; (dose: 12.5 mg/kg/injection, schedule: Q01DX009 (ip), vehicle: saline sonified) 97 % of control; (dose: 12.5 mg/kg/injection, schedule: Q04DX003 (ip), vehicle: Klucel (hydroxypropylcellulose) (HPC)) 109 % of control; (dose: 25.0 mg/kg/injection, schedule: Q01DX009 (ip), vehicle: saline sonified) 90 % of control; (dose: 25.0 mg/kg/injection, schedule: Q04DX003 (ip), vehicle: Klucel (hydroxypropylcellulose) (HPC)) 117 % of control. The T/C under setting [8] is 86 % of control.
On to `CCN(CC)CCNc1ccc(N=Nc2ccc(SC)cc2)c2ccccc12`, for which the T/C is 91 % of control (dose: 6.25 mg/kg/injection, schedule: Q01DX015 (ip), vehicle: carboxymethylcellulose (CMC)); 93 % of control (dose: 12.5 mg/kg/injection, schedule: Q01DX015 (ip), vehicle: carboxymethylcellulose (CMC)); 86 % of control (dose: 25.0 mg/kg/injection, schedule: Q01DX015 (ip), vehicle: carboxymethylcellulose (CMC)); 94 % of control (dose: 50.0 mg/kg/injection, schedule: Q01DX009 (ip), vehicle: saline with Tween-80); 87 % of control (dose: 50.0 mg/kg/injection, schedule: Q01DX015 (ip), vehicle: carboxymethylcellulose (CMC)); 96 % of control (dose: 50.0 mg/kg/injection, schedule: Q04DX003 (ip), vehicle: saline). Further, the T/C is 103 % of control under setting [7]; 89 % of control (dose: 100.0 mg/kg/injection, schedule: Q04DX003 (ip), vehicle: saline); 88 % of control (dose: 200.0 mg/kg/injection, schedule: Q04DX003 (ip), vehicle: saline).
For `O=C(CS(=O)(=O)Cc1ccccc1)N1CCOCC1`, the T/C is, setting by setting: (dose: 100.0 mg/kg/injection, schedule: Q01DX001 (ip), vehicle: saline) 95 % of control; (dose: 200.0 mg/kg/injection, schedule: Q01DX001 (ip), vehicle: saline) 93 % of control; (dose: 200.0 mg/kg/injection, schedule: Q01DX009 (ip), vehicle: saline) 89 % of control; (dose: 400.0 mg/kg/injection, schedule: Q01DX001 (ip), vehicle: saline) 93 % of control; (dose: 400.0 mg/kg/injection, schedule: Q01DX009 (ip), vehicle: saline) 102 % of control.
Consider `c1ccc(-c2cc(-c3ccccc3)[o+]c(-c3ccccc3)c2)cc1`, for which the T/C is, setting by setting: (dose: 100.0 mg/kg/injection, schedule: Q04DX002 (ip), vehicle: Klucel (hydroxypropylcellulose) (HPC)) 93 % of control; (dose: 200.0 mg/kg/injection, schedule: Q04DX002 (ip), vehicle: Klucel (hydroxypropylcellulose) (HPC)) 96 % of control; (dose: 400.0 mg/kg/injection, schedule: Q04DX002 (ip), vehicle: Klucel (hydroxypropylcellulose) (HPC)) 90 % of control.
